The values that follow come from article PMC10845951, “Characterization of a selective, iron-chelating antifungal compound that disrupts fungal metabolism and synergizes with fluconazole” (Microbiology Spectrum, 2024).

Experiment [1] concerns Candida glabrata (ATCC15545; JEY10028) wild type. Briefly: Compound screening: proliferation (OD600, 24 h). It is filed as cell-based. Particulars: wild-type C. glabrata (JEY10028), SD media. As for the experimental part: For experiments, yeast cells were routinely cultured in YPD media and incubated at 30°C overnight. The cultures were refreshed the next day for 2–3 h in YNB −iron (0.69% yeast nitrogen base without amino acids or iron, with 2% dextrose) media, unless stated, at the same temperature. After incubation, the optical density (OD600) of the cell cultures was measured and adjusted to 0.15.
The collismycin compounds were provided by EntreChem (Spain) at stock solutions of 20 mM in DMSO and stored at −20°C. For serial dilutions of the compounds in clear 96-well plates, intermediate stock concentrations of 100 µM of compound (100 µL for each technical replicate) were prepared in YNB −iron media unless otherwise specified, and 1:1 serial dilutions were performed using a multi-channel pipette. Fifty microliters of cell culture (OD600 = 0.15) were added to the wells containing the compounds, for a total volume of 150 µL. The final concentrations in the wells (with three technical replicates) were equivalent to 0.5, 1, 2.1, 4.2, 8.4, 16.7, 33.3, and 66.6 µM. The OD600 of each well was quantified, and the plates were incubated inside plastic bags (to prevent evaporation) at 30°C for 24 h, after which the final OD600 was measured. The EC50 was calculated using the four-parameter log logistic function with the drc package in R ([57]).

In the next experiment the test system is C. albicans WT. The settings on record: 24 h.
Setting [2] is: Candida albicans, read-out: C. albicans WT Inhibition (%).

Each structure is given as a SMILES string.

As to `COc1cc(-c2ccccn2)nc(CO)c1SC` [ColH, collismycin H], the antifungal activity entry in experiment [1] is listed as “lacked antifungal activity even at very high concentrations”.
In the case of `OC(Cn1cncn1)(Cn1cncn1)c1ccc(F)cc1F` [Fluconazole, fluconazole], the “susceptibility to fluconazole alone” value in the experiment with C. albicans WT (YNB −iron) is “only susceptible to high concentrations”. Further, in the experiment with C. albicans WT (setting [2]), the inhibition at 3.13 µM is -1.65%, the inhibition at 6.25 µM stood at 9.43%, the inhibition at 25 µM worked out at 14.8% and the inhibition at 50 µM is 15.4%. Also, the inhibition at 100 µM in the experiment with C. albicans WT (setting [2]) was 19.6%.

A word on the inhibition: it is the drop in the measured response relative to a control, in per cent.
